Measured values as given in ChEMBL document CHEMBL3430912, “GSK Tres Cantos Anti-Kinetoplastid Screening (TCAKS) Data”.
pIC50: −log10 of the molar value.

Legend:
NIH3T3 = test: GSK_TCAKS: pIC50 NIH 3T3 cell line viability assay using luminiscence. Tissue culture surface treated assay plates (1536-well) were used. […] The 100% cells survival control was determined exposing the host-cells to a 0.5% DMSO concentration, whereas the 100% toxicity control was achieved by seeding the cells in presence of Amphotericin B at 50uM. Plates were incubated for four days at 37C, 5% CO2. The assay readout was developed by addition of 5uL of CellTiter-Glo Reagent following the manufacturer's instructions. Luminiscence was measured using a ViewLux.; type: functional, cell-based; conditions: Mus musculus, NIH3T3, 96 h
Leishmania donovani [1] = test: (§1) GSK_TCAKS: pIC50 Leishmania donovani Imaging: Amastigotes/Macrophages. Assay plates (384-well) were prepared by adding 250nL of compound to each well. For single shot assay, the final compound concentration was 5 uM. […] Automated image analysis was performed with a script developed on Acapella High Content Imaging and Analysis Software (PerkinElmer). Output: Average number of amastigotes per macrophage cell were reported for each well.; type: functional, organism-based, Homo sapiens; conditions: THP-1
Leishmania donovani [2] = test: as §1, with “Infected Macrophages.” for “Amastigotes/Macrophages.”, “Percent” for “Average number”, “infected” for “amastigotes per”, “cells” for “cell”; type: functional, organism-based, Homo sapiens; conditions: THP-1
[3] = test system: Trypanosoma brucei brucei; test: GSK_TCAKS: pIC50 Trypanosoma brucei viability assay using luminiscence. Assay plates (1536-well) were prepared. T. brucei cultures were harvested and counted in a CASY cell counter. A parasite suspension was prepared at a final concentration of 5 * 10^4 cells/mL in complete HMI9 medium and 6uL was dispensed to all wells containing compounds using a Multidrop Combi dispenser. 6uL of HMI9 media with 0.4% DMSO were dispensed to control columns. Plates were incubated for 24 h at 37C, 5% CO2 then tempered for 10 min at room temperature. ATP content was quantified by adding 4 uL of CellTiter-Glo Reagent (Promega) according to the manufacturer's instructions. Luminescence was measured using a ViewLux.; type: functional, organism-based; conditions: Lister 427, CASY
Leishmania donovani [4] = test: GSK_TCAKS: pIC50 Leishmania donovani viability assay using fluorescence intensity. Assay plates (1536-well) were prepared by adding 30nL per well of compound. For single shot assay, the final compound concentration was 5uM. […] Briefly, eGFP LdBOB axenic amastigotes were harvested, fixed and counted in a CASY cell counter (Roche-Applied Science). A final concentration of 1.5 * 10^5 cells per well were prepared in amastigote media containing 500 U/mL penicillin/streptomycin (Invitrogen) and 6uL was dispensed to each experimental well using a Multidrop Combi dispenser (Thermo Scientific). 6uL of assay media was dispensed to control columns used as reference for 100% compound response. Following incubation for 72 h at 37C, 5% CO2, 2 uL of resazurin was added to each well at a final concentration of 0.5 mM in phosphate buffered saline (PBS) with IGEPAL (Sigma-Aldrich), 0.05% (v/v).; type: functional, organism-based
Leishmania donovani [5] = test: as §1, with “THP-1 Host Macrophages.” for “Amastigotes/Macrophages.”, “THP-1” for “Average number of amastigotes per macrophage”, “cell count” for “cell”; type: functional, organism-based, Homo sapiens
Trypanosoma cruzi [6] = test: (§2) GSK_TCAKS: pIC50 Trypanosoma cruzi Imaging: Amastigotes/Cell. […] Cells were then washed once with PBS before infection. T. cruzi trypomastigotes, collected at days 5 to 8 after infection from LLC-MK2 parasite infected cultures, were allowed to swim out for 4h at 37C from a centrifuged pellet (2,500 rpm/10 min/room temperature). Trypomastigotes were then collected and counted in a CASY Cell Counter. Trypomastigotes, in supplemented DMEM, were added to H9c2 cultures in a multiplicity of infection of 1 and incubated for 18 h. Cells were washed once with PBS before incubation of the infected H9c2 monolayer with trypsin (Life-Technologies) to detach cells from the flask. Cells were counted in a CASY Cell Counter using a 150 um capillary and their density set at 5 * 10^4 cells per mL in supplemented assay DMEM. Infected H9c2 were dispensed into 384-well poly-lysine coated assay plates at 50uL per well using a Multidrop Combi dispenser. After seeding them, the plates were incubated at 37C, 5% CO2 for 72h. Cultures were then fixed and stained by addition of 50 uL of a solution containing 8% formaldehyde and 4 uM DRAQ5 DNA dye (BioStatus, UK) per well. […] Five images were collected per well for reliable statistical analysis. Automated image analysis was performed with a script developed on Acapella High Content Imaging and Analysis Software (PerkinElmer). Output: number of amastigotes per cell as infection level measurement.; type: functional, organism-based, Rattus norvegicus; conditions: H9c2, 4 h
[7] = target: Sterol 14-alpha demethylase (Trypanosoma cruzi (strain CL Brener), UniProt Q7Z1V1); test: GSK_TCAKS: pIC50 CYP51 from Trypanosoma cruzi.; type: functional
Trypanosoma cruzi [8] = test: as §2, with “H2C9” for “Trypanosoma cruzi”, “H9c2 Host Cardiomyocytes.” for “Amastigotes/Cell.”, “Number” for “number”, “H9c2 Host Cardiomyocytes nuclei to determine drug-related cytotoxicity.” for “amastigotes per cell as infection level measurement.”; type: functional, organism-based, Rattus norvegicus; conditions: H9c2, 4 h
Trypanosoma cruzi [9] = test: GSK_TCAKS: pIC50 Trypanosoma cruzi Imaging: Infected Cells. […] Cells were then washed once with PBS before infection. T. cruzi trypomastigotes, collected at days 5 to 8 after infection from LLC-MK2 parasite infected cultures, were allowed to swim out for 4h at 37C from a centrifuged pellet (2,500 rpm/10 min/room temperature). Trypomastigotes were then collected and counted in a CASY Cell Counter. Trypomastigotes, in supplemented DMEM, were added to H9c2 cultures in a multiplicity of infection of 1 and incubated for 18 h. Cells were washed once with PBS before incubation of the infected H9c2 monolayer with trypsin (Life-Technologies) to detach cells from the flask. Cells were counted in a CASY Cell Counter using a 150 um capillary and their density set at 5 * 10^4 cells per mL in supplemented assay DMEM. Infected H9c2 were dispensed into 384-well poly-lysine coated assay plates at 50uL per well using a Multidrop Combi dispenser. After seeding them, the plates were incubated at 37C, 5% CO2 for 72h. Cultures were then fixed and stained by addition of 50 uL of a solution containing 8% formaldehyde and 4 uM DRAQ5 DNA dye (BioStatus, UK) per well. […] Five images were collected per well for reliable statistical analysis. Automated image analysis was performed with a script developed on Acapella High Content Imaging and Analysis Software (PerkinElmer). Output: percentage of infected cells per well as a second infection marker.; type: functional, organism-based, Rattus norvegicus; conditions: H9c2, 4 h
Trypanosoma cruzi [10] = test: GSK_TCAKS: pIC50 Trypanosoma cruzi viability assay using beta-GAL activity. This assay was run at single shot at 5uM compound concentration per well. The biological reagents consisted of NIH-3T3 host cells and trypomastigotes parasitic cells; both cell types were set to a 3.3 * 10^5 cells/mL dilution in assay DMEM by means of a CASY cell counter device using a 60um capillary. 6 uL of the mixture were dispensed per well (about 1 * 10^3 host-cells and 1 * 10^3 parasites) with a Multidrop Combi dispenser. […] In all wells, the percentage of DMSO never exceeded 0.5%. Plates incubated for four days at 37C, 5% CO2. The substrate used for the assay fluorescence intensity (FLINT) readout was resorufin-beta-D-galactopiranoside (Sigma-Aldrich) at 5uM per well. It was diluted in PBS supplemented with the soft detergent Igepal (Fluka).; type: functional, organism-based, Mus musculus; conditions: Tulahuen, NIH3T3
[11] = test system: Trypanosoma brucei brucei; test: GSK_TCAKS: pIC50 Trypanosoma brucei viability assay using fluorescence intensity. Assay plates (1536-well) were prepared by dispensing 25nL of compound solution per well using an Echo acoustic dispenser (Labcyte).; type: functional, organism-based; conditions: Lister 427, 2 h
[12] = GSK_TCAKS: pIC50 HepG2 human cell line viability assay using luminiscence. […] Seeding density was checked to ensure that new mono-layers were not more than 50% confluent at the time of harvesting. Cell suspension was added to 500 mL of the same medium at a final density of 1.2 * 10^5 cells/mL. This cell suspension was dispensed (25 uL, 3000 cells per well) into 384-well clear-bottom plates using a Multidrop Combi dispenser. Prior to addition of the cell suspension, the screening compounds (250 nL) were pre-dispensed into the plates with an Echo liquid handler. Plates were incubated for 48 h at 37C, 5% CO2. After incubation, plates equilibrated at room temperature for 30 min before proceeding to develop the luminescent signal. The signal developer, CellTiter-Glo Reagent, was allowed to equilibrate at room temperature for 30 min and added to the plates (25uL per well) using a Multidrop Combi dispenser. Plates were left for 10 min at room temperature for stabilization and then read using a ViewLux.; type: toxicity, cell-based

Sterol 14-alpha demethylase, sequence (Q7Z1V1 whole entry): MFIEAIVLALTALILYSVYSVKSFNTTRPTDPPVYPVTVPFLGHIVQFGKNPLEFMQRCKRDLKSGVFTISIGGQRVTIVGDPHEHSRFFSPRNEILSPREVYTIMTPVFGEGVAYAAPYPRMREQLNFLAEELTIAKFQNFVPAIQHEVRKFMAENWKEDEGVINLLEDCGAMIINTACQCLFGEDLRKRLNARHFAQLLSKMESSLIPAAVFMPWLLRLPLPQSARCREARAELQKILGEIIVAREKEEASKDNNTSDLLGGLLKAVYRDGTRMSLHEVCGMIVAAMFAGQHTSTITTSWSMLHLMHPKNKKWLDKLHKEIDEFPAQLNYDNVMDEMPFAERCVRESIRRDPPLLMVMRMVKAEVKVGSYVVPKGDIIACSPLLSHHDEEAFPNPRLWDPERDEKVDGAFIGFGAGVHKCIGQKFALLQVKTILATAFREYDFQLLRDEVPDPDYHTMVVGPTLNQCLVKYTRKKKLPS

| Compound | pIC50 (NIH3T3) | pIC50 (Leishmania donovani [1]) | pIC50 (Leishmania donovani [2]) | pIC50 [3] | pIC50 (Leishmania donovani [4]) | pIC50 (Leishmania donovani [5]) | pIC50 (Trypanosoma cruzi [6]) | pIC50 [7] | pIC50 (Trypanosoma cruzi [8]) | pIC50 (Trypanosoma cruzi [9]) | pIC50 (Trypanosoma cruzi [10]) | pIC50 [11] | IC50 at 48 h [12] [µM] |
| --- | --- | --- | --- | --- | --- | --- | --- | --- | --- | --- | --- | --- | --- |
| O=c1cc(NCCCNC2CCOc3c(I)cc(Cl)cc32)[nH]c2ccccc12 (configuration not stated) | 4.60 | 4.90 | 4.70 | 7.70 | 4.50 | 4.70 | 6.80 | 4.80 | 4.60 | 6.50 | 6.10 | 8.00 | 63.1 |
| Cc1sc(C)c(C(F)(F)F)c1CNCCCNc1cc(=O)c2ccccc2[nH]1 | 5.00 | 4.60 | 4.30 | 7.90 | < 4.30 | 4.50 | 6.30 | 4.70 | < 4.30 | 6.00 | 6.10 | 8.00 | 50.1 |
| CC(C)N(C(=O)CN1C(=O)C(N)C(=O)N(c2ccccc2)c2ccccc21)c1ccccc1 (configuration not stated) | 4.70 | < 4.30 | < 4.30 | < 4.40 | < 4.30 | < 4.30 | 6.40 | 6.50 | < 4.30 | 6.50 | 6.50 | < 4.40 | > 100 |
| N#Cc1nc(C=Cc2ccccc2)oc1NCc1cccnc1 | 4.90 | 4.50 | 4.40 | 4.50 | 4.60 | 4.50 | 6.40 | – | 4.80 | 6.40 | 6.60 | 4.80 | > 100 |
| CCN(C)Cc1ccc(N2CCC(NS(=O)(=O)c3ccc4c(c3)CCO4)CC2)nc1 | 4.90 | – | < 4.30 | 4.40 | < 4.30 | < 4.30 | 6.00 | < 4.00 | < 4.30 | 5.90 | 6.20 | < 4.40 | > 100 |
| Cn1c(CN2CCN(c3ncc(C(F)(F)F)cc3Cl)CC2)nc2ccncc21 | 5.00 | – | < 4.30 | < 4.40 | 5.30 | 5.20 | 6.00 | 7.10 | < 4.30 | 6.00 | 6.10 | 5.20 | > 100 |
| FC(F)(F)c1cc(C2CCCN(Cc3c[nH]c4ccccc34)C2)nc2ncnn12 (configuration not stated) | 4.70 | < 4.30 | < 4.30 | < 4.40 | < 4.30 | 4.80 | 5.20 | – | < 4.30 | 5.00 | 5.80 | < 4.40 | > 100 |
| Fc1ccccc1N1C[C@H]2CCN(c3cccnc3)C[C@H]2C1 | 4.90 | – | < 4.30 | < 4.40 | 4.90 | < 4.30 | 6.70 | 7.20 | < 4.30 | 6.70 | 6.70 | 4.50 | > 100 |
| c1cncc(CN(Cc2ccco2)Cc2c[nH]nc2-c2cccs2)c1 | 4.50 | 5.90 | < 4.30 | – | 4.50 | 4.70 | 7.40 | 7.10 | < 4.30 | 7.30 | 7.70 | 4.60 | > 100 |
| Cn1cncc1CN1CCC2(CC1)COC(Cc1ccccc1)C2 (configuration not stated) | 4.60 | – | < 4.30 | < 4.40 | 4.90 | < 4.30 | 6.50 | 6.00 | < 4.30 | 6.30 | 6.50 | < 4.40 | > 100 |
| CC(C)Oc1ccc(C(=O)Nc2ccc(N3CCOCC3)c(Cl)c2)cc1 | 5.00 | 5.50 | < 4.30 | – | < 4.30 | < 4.30 | 5.90 | < 4.00 | < 4.30 | 5.90 | 5.80 | 4.90 | 31.6 |
| CCCCNc1nccc(-c2c(-c3ccc(F)cc3)nn3c(N4CCOCC4)cccc23)n1 | 5.00 | < 4.30 | 5.20 | – | < 4.30 | 4.90 | 6.00 | < 4.00 | < 4.30 | 5.50 | 6.40 | 5.00 | > 100 |
| CN(C)CCOc1ccc(N2CCN(S(=O)(=O)c3ccc(Cl)cc3)CC2)cc1 | 4.80 | 4.50 | 4.50 | 4.60 | 4.40 | < 4.30 | 6.30 | – | < 4.30 | 6.20 | 6.20 | 4.70 | 50.1 |
| CC1(C)CCC(=Cc2ccc(Cl)cc2)CC1(O)Cn1ccnc1 (configuration not stated) | 4.80 | 5.70 | 5.10 | 4.60 | 5.60 | 4.90 | 8.30 | 7.30 | 4.50 | 8.10 | 8.20 | 5.00 | 50.1 |
| O=C(NCC1CCCCC1)c1cc(=O)c2ccccc2o1 | 4.50 | 5.20 | 4.80 | 5.90 | 5.30 | < 4.30 | 6.30 | < 4.00 | 4.50 | 6.20 | 6.35 | 6.00 | 25.1 |
| Nc1ncnc2c1ncn2[C@@H]1O[C@H](CO)C[C@H]1O [CORDYCEPIN] | < 4.30 | < 4.30 | < 4.30 | 8.00 | < 4.30 | < 4.30 | 5.90 | < 4.00 | – | 5.70 | 5.95 | 7.90 | > 100 |
